Values of other authors, collected in patent US20010053381A1, “System and method for treating kidney diseases in diabetic and non-diabetic patients” (priority 2000, published 2001).

Columns and labels:
[1] = tested on: patients with type 1 DM and diabetic nephropathy

In the case of insulin [CIIIT], the blood pressure control (patients with type 1 DM) is given as “improve blood pressure control substantially”, the “reduction of antihypertensive medication requirements” value (patients with type 1 DM) is given as 46% and the “progression of overt diabetic nephropathy” value ([1]; 37 months, type 1 DM patients) is given as “arrest or appreciably reduce the progression”. The “Creatinine clearance at baseline” value ([1]; baseline, 31 patients with type 1 DM and diabetic nephropathy) was 46.1 ± 3.0 mL/min, the “Creatinine clearance at the end of the observation period” value ([1]; end of observation period (37 months), 31 patients with type 1 DM and diabetic nephropathy) was 46.0 ± 3.9 mL/min and the “hemoglobin Alc levels, after study period” value ([1]; value after decline during the study period, P=0.0062) was 7.6±0.3%. The “hemoglobin Alc levels, start of study period” value ([1]; value before decline, patients with type 1 DM and diabetic nephropathy) was 8.6±0.6%.
